ChEMBL document CHEMBL1287752, “Changes in flavonoid content and tyrosinase inhibitory activity in kenaf leaf extract after far-infrared treatment” (Bioorg Med Chem Lett, 2010)

What was measured:
[1] = target: T1, Tyrosinase (Agaricus bisporus, UniProt O42713); assay: Inhibition of mushroom tyrosinase after 20 mins by spectrophotometric analysis
T1 sequence (O42713 whole entry): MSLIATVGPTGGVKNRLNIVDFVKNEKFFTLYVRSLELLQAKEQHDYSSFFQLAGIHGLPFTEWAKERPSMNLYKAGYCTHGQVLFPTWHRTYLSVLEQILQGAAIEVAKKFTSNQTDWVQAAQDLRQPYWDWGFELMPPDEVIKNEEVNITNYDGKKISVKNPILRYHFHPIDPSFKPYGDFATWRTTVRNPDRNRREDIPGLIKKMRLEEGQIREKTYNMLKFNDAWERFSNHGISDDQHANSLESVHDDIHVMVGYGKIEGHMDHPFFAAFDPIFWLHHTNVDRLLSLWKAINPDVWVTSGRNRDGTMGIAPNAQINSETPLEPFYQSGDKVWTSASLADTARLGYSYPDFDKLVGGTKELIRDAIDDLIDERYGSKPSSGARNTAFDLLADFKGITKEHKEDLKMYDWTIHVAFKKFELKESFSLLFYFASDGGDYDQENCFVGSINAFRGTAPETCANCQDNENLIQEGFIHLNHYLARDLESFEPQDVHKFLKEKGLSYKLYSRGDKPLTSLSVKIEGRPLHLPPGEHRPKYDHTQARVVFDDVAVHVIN

[2] = target: T2, Tyrosinase (Agaricus bisporus) (UniProt O42713); conditions: 400 uM
T2 sequence (whole entry): T1 sequence (O42713 whole entry)
Description: Inhibition of mushroom tyrosinase at 400 uM after 20 mins by spectrophotometric analysis

IC50 [1]	inhibition [2]	SMILES
171 µM		O=c1c(O)c(-c2ccc(O)cc2)oc2cc(O)cc(O)c12 [KAEMPFEROL]
> 400 µM	< 39.1%	C[C@@H]1O[C@@H](Oc2cc(O)c3c(=O)c(O)c(-c4ccc(O)cc4)oc3c2)[C@H](O)[C@H](O)[C@H]1O [ALPHA-RHAMNOISOROBIN]
